In publication PMC9820345, “Metal Complexes of a 5-Nitro-8-Hydroxyquinoline-Proline Hybrid with Enhanced Water Solubility Targeting Multidrug Resistant Cancer Cells” (International Journal of Molecular Sciences, 2022):

Key:
HSA site I (Trp-214) = molecular target: T1, HSA site I (Trp-214) (Homo sapiens, UniProt P02768); test: HSA Trp-214 quenching by fluorometry (site I); format: binding; conditions: 1 µM HSA, pH 7.4 (PBS'), 24 h incubation
T1 construct: purchased Sigma-Aldrich (Darmstadt, Germany) A8763
T1 sequence (P02768 25-609): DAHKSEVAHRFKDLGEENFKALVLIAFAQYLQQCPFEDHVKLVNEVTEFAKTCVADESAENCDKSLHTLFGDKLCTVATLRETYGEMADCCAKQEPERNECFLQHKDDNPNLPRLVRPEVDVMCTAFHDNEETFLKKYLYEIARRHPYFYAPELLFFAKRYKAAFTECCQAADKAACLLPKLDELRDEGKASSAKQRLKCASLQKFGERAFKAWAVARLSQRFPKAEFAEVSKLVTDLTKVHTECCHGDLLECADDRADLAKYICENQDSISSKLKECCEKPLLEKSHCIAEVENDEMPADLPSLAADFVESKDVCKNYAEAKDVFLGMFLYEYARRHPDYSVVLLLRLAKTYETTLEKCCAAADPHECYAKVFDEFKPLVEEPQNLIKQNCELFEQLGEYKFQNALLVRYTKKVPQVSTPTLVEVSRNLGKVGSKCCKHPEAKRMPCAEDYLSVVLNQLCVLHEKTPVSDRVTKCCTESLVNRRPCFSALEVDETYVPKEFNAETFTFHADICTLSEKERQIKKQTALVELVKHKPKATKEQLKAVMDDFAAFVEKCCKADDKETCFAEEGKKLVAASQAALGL
Protocol: Therefore, tryptophan (Trp-214) quenching and dansylglycine (DG) site marker displacement experiments were conducted by fluorometry to obtain information about the binding at sites I and II, respectively, using the same approach reported in our former paper. A representative spectral series is shown in Figure 9a for the Trp-214 quenching experiment, upon the addition of the RhCp*–HQNO2-L-Pro complex and the computed binding constants (logKQ’ and logKDG’) which can be found in Figure 9b, in addition to the corresponding data for the HQCl-L-Pro complexes.
A Fluoromax (Horiba Jobin Yvon, Longjumeau, France) spectrofluorometer was utilized for fluorescence measurements using a 1 cm × 1 cm quartz cuvette. Samples contained 1 µM HSA or DG and 1 µM HSA at pH 7.4 (PBS’), and the complex concentration was varied between 0 and 53 µM. The measurements were carried out on individual samples. Excitation wavelengths were 295 nm for Trp-214 quenching, and 335 nm for the DG displacement studies, respectively. The calculated conditional stability constants for HSA–complex species were obtained using the computer program HypSpec. Calculations always were based on data obtained from at least two independent measurements. Self-absorbance and inner filter effect had to be taken into account, and corrections were made as was described in our former works.

[1] = Stability of the isolated complexes in aqueous solution at pH 7.4 (UV-vis over 72 h); format: physicochemical
Protocol: The stability of the isolated RhCp* and RuCym complexes in aqueous solution at pH 7.4 was assayed via recording the UV-vis spectra over 72 h (Figure S18). […] Then, the behaviour of the complexes was monitored between pH 2 and 12 by ^1H NMR spectroscopy (see representative spectra of the RuCym complex in Figure 8) in chloride-free medium, as this halide ion can act as a competitor ligand. There was no indication for the dissociation of the complexes (i.e., liberation of unbound ligand or metal precursor) in the studied pH range or even at pH 1 (Figure S19), showing their fairly high stability in solution.
An Agilent Cary 8454 diode array spectrophotometer (Santa Clara, CA, USA) was used to obtain UV-vis spectra in the wavelength range 200–1000 nm, while spectra were recorded for the Fe(II)-containing samples using an Avantes (Avantes B.V., Apeldoorn, The Nederlands) AvaSpec-ULS2048CL-EVO spectrometer with an AvaLight-DHc light source and FDP-7UVIR200-2-VAR transmission dip probe. The titrations for the Fe(II)-containing samples were performed in a laboratory glove box (GP(Campus), Jacomex) (O2 content ≤ 1 ppm). The path length (ℓ) was 1 cm in most cases (the actual ℓ is always indicated in the legends of the figures). The concentrations of the ligands and complexes were between 40 and 200 µM, and 0.2 M KNO3 for the organometallic complexes or 0.1 M KCl for the Fe(II/III), Cu(II), and Zn(II) complexes were used to adjust the constant ionic strength. For HSA containing samples, complex concentrations were 50 µM, and 0.5, and 2 equiv. biomolecules were added for kinetic studies, respectively. For HSA model containing samples, complex concentrations were 50 µM, and the model concentrations were 0–150 µM and 0–500 µM, respectively, and the pH was 7.4 (PBS’). Spectra were always background and baseline corrected. The computer program HypSpec was used to obtain stability constants. Hydrolysis constants of the Fe(III), Fe(II), RuCym, and RhCp* species were included in the speciation models (see Table S4 with the data taken from References).

[2] = Stability of the complexes in blood serum (UV-vis); format: in vitro ADME, human; conditions: blood serum four-time diluted with PBS'; after 24 h
Text: The stability of the RhCp* and RuCym complexes of HQNO2-L-Pro was also monitored in Roswell Park Memorial Institute (RPMI) medium used for the in vitro cell studies (in the case of Colo cells), and in blood serum using UV-vis and ^1H NMR spectroscopy. […] Despite these changes, the dissociation of the complexes is not likely as the liberation of the unbound ligand was not observed; thus, the complexes most probably form ternary complexes with the components of the serum or the medium. In order to further study the reactivity of these complexes with bioligands, their interaction with human serum albumin (HSA) and selected oligopeptides (also used as binding models of HSA) was assayed.
Stock and sample solutions were prepared using Milli-Q water. […] Their concentrations were determined by complexometry via the EDTA complexes. […] The concentration of the Fe(II) stock solution was determined by permanganometric titrations under acidic conditions. […] Residual citrate content of HSA was removed by repeated ultrafiltration of the protein stock solution, and its concentration was calculated from its UV absorption: λ280nm (HSA) = 36,850 M^−1 cm^−1 [51]. […]

| Kd (HSA site I (Trp-214); read-out: quenching constant logKQ' (converted)) | UV-vis spectral changes in aqueous solution ([1]; after 48 h) | quenching constant logKQ' (HSA site I (Trp-214)) | SMILES | UV-vis spectral changes in aqueous solution ([1]; first 24 h) | changes of the charge-transfer bands (400–500 nm) on incubation in serum [2] |
| --- | --- | --- | --- | --- | --- |
| 16.6 µM | – | – | O=C(O)[C@@H]1CCCN1Cc1cc([N+](=O)[O-])c2cccnc2c1O [HQNO2-L-Pro, (2S)-1-((8-hydroxy-5-nitroquinolin-7-yl)methyl)pyrrolidin-1-ium-2-carboxylate] | – | – |
| – | minor spectral change | 5.1 | CC1=C(C)[C](C)([Rh]([Cl])[O]c2c(C[NH+]3CCC[C@H]3C(=O)O)cc([N+](=O)[O-])c3cccnc23)C(C)=C1C.[Cl-] [RhCp*-HQNO2-L-Pro, [RhCp*(HQNO2-L-Pro)Cl]Cl] | no measurable changes | minor changes |
| – | – | – | Cc1ccc(C(C)C)cc1.O=C(O)[C@@H]1CCC[NH+]1Cc1cc([N+](=O)[O-])c2ccc[n+]3c2c1[O][Ru-]3[Cl].[Cl-] [RuCym-HQNO2-L-Pro, [RuCym(HQNO2-L-Pro)Cl]Cl] | no measurable changes | minor changes |
